Measured values taken from patent publication US20130109682A1, “CYCLIC ETHER COMPOUNDS USEFUL AS KINASE INHIBITORS” (NOVARTIS AG, priority 2010, published 2013).
Like-named read-outs stand apart in the source and are kept apart here.

Key:
Type in all cases: biochemical
[1] = biological target: PKCα (Homo sapiens, UniProt P17252); test: PKCα kinase Caliper assay; conditions: read-out: PKC IC50
Procedure: PKCα and cABLT315 Kinase Caliper Assays
Assays were performed in 384 well microtiter plates. Each assay plate contained 8-point serial dilutions for test compounds, as well as two 16-point serial dilutions of staurosporine as reference compound, plus 16 high- and 16 low controls. Liquid handling and incubation steps were done on a Thermo CatX workstation equipped with a Innovadyne Nanodrop Express. Between pipetting steps, tips were cleaned in wash cycles using wash buffer. Plates with terminated kinase reactions were transferred to the Caliper LC3000 workstations for reading. Phosphorylated and unphosphorylated peptides were separated using the Caliper microfluidic mobilitishift technology and Kinase activities were calculated from the amounts of formed phospho-peptide.
1. 0.05 μA Compound (start with 1.8 mM in 90% DMSO/10% H2O)
2. +4.5 μl 2× peptide/ATP solution
3. +4.5 μl 2× enzyme solution
4. Incubate for 60 min at 30° C.
4. +16 μl stop/run buffer
Independent of the kinase, all reactions were done performed in 50 mM HEPES, pH 7.5, 1 mM DTT, 0.02% Tween20, 0.02% BSA, and 0.6% DMSO.

[2] = biological target: T1, FLT3D835Y kinase (Homo sapiens, UniProt P36888, D835Y); test: FLT3D835Y kinase inhibition assay (LanthaScreen TR-FRET); conditions: read-out: FLT3 IC50
T1 sequence (P36888 27-993 D835Y): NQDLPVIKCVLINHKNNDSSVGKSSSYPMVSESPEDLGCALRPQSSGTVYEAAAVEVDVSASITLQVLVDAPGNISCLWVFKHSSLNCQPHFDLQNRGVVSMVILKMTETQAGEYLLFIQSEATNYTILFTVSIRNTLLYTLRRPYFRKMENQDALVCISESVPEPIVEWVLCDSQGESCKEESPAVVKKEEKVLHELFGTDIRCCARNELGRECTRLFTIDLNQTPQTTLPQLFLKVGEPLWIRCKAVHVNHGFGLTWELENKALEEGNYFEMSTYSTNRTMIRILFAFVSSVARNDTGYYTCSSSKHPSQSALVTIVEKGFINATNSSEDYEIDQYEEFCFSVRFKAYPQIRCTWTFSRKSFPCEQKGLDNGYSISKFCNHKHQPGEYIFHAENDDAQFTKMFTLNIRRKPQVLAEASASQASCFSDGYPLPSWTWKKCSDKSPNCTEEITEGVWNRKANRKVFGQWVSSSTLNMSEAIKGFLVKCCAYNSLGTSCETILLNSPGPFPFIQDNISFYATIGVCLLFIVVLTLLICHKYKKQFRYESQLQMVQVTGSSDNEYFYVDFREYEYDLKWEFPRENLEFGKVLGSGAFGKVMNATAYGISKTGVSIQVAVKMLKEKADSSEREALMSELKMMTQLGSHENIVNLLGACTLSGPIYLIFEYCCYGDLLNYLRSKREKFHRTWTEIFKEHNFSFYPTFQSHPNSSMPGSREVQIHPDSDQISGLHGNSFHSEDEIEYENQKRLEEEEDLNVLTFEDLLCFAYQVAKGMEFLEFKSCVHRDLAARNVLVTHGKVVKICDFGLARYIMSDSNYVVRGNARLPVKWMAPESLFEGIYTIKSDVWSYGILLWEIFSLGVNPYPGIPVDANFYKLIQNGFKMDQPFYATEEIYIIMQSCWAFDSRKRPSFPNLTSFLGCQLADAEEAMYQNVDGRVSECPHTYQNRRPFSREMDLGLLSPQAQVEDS
Procedure: FLT3D835Y Kinase Inhibition Assay
(§1) LanthaScreen™ is the detection of Time-Resolved Fluorescence Resonance Energy Transfer (TR-FRET) using lanthanide chelates to measure interactions between various binding partners. The application of TR-FRET to assay kinase activity was first described by Mathis (1995). A TR-FRET assay was used to measure FLT3D835Y kinase inhibitory activity. The assay panel was run on a Biomek FX liquid handling workstations. To the assay plates containing […] compound or control solutions, 4.5 μL of buffer A (50 mM TRIS-HCl pH 7.4, 2 mM DTT, 0.02% Tween 20, 0.02 mM Na3VO4, H2O nanpure) including a generic concentration of ATP (2 μM f.c.) was added per well, followed by […] of buffer B (4 uM ATP in Buffer A) including a generic concentration of polyEAY (50 nM f.c.), FLT3D835Y kinase, and divalent cations. Final concentration of kinase and cations were: [FLT3D835Y kinase]=5.7 nM, [Mg]=3 mM, [Mn]=3 mM. After 1 hour of incubation the kinase reactions were stopped by the addition of 4.5 μL of stop solution D (50 mM EDTA, 20 mM TRIS-HCl pH 7.4, 0.04% NP-40) immediately followed by 4.5 μL of buffer A (50 mM TRIS-HCl pH 7.4, 2 mM DTT, 0.02% Tween 20, 0.02 mM Na3VO4, H2O nanpure) including the Tb-labeled P-20 antibody to give a total detection volume of […]. After an incubation time of 45 min in the dark, the plates were transferred into the Pherastar fluorescence reader for counting. The effect of compound on the enzymatic activity was obtained from the linear progress curves and determined from one reading (end point measurement).

[3] = biological target: PDGFRaV561D kinase (Homo sapiens, UniProt P16234, V561D); test: PDGFRaV561D kinase inhibition assay (LanthaScreen TR-FRET); conditions: read-out: PDGFRa IC50
Procedure: PDGFRaV561D Kinase Inhibition Assay
as §1, with “PDGFRaV561D” for “FLT3D835Y”, “[PDGFRaV561D kinase]=4.4” for “[FLT3D835Y kinase]=5.7”, “[Mn]=10” for “[Mg]=3 mM, [Mn]=3”

Sequence of PDGFRaV561D kinase (P16234 24-1089 V561D): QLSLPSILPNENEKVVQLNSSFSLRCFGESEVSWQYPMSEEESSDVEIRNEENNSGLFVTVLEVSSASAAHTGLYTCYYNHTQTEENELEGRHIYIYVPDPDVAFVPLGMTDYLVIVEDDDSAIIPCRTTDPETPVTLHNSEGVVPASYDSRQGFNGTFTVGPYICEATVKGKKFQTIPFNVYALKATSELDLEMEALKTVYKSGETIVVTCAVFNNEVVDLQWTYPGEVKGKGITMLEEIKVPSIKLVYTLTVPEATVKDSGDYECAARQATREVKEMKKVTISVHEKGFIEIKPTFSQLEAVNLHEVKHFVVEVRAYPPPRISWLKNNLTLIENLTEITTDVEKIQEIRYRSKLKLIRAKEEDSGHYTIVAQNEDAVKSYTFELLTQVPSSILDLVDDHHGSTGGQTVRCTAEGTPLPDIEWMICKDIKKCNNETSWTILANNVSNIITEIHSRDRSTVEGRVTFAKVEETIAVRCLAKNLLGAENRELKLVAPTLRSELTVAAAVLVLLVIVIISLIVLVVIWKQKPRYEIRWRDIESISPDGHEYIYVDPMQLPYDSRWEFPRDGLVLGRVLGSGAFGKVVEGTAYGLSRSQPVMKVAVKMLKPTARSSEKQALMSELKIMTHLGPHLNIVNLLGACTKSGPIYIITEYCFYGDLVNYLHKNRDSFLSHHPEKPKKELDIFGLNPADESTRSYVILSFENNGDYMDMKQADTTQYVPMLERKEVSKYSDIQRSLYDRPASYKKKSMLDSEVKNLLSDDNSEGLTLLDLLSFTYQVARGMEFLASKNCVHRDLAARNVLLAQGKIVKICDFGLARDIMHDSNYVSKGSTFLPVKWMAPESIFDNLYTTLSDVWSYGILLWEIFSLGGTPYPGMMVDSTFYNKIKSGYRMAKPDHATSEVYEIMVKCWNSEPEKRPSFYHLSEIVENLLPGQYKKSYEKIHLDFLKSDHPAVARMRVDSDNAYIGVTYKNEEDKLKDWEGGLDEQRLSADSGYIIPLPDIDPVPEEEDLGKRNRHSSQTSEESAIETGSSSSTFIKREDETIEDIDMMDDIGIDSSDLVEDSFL

SMILES	IC50 ([1]; PKCα Caliper assay) [nM]	IC50 [2] [nM]	IC50 [3] [nM]	IC50 [1] [nM]
N[C@@H]1C[C@H](c2ccncc2NC(=O)c2ccc(F)c(-c3c(F)cccc3F)n2)O[C@@H]2CCC[C@H]12 [Example 224, N-(4-((2R,4R,4aR,7aR)-4-aminooctahydrocyclopenta[b]pyran-2-yl)pyridin-3-yl)-6-(2,6-difluorophenyl)-5-fluoropicolinamide]	> 10000	1600	390	–
C[C@H]1O[C@@H](c2ccncc2NC(=O)c2ccc(F)c(-c3c(F)cccc3F)n2)C[C@@H](N)[C@]1(C)O [Example 219, N-(4-((2R,4R,5S,6R)-4-amino-5-hydroxy-5,6-dimethyltetrahydro-2H-pyran-2-yl)pyridin-3-yl)-6-(2,6-difluorophenyl)-5-fluoropicolinamide]	> 10000	1700	630	–
COc1cc(F)c(-c2nc(C(=O)Nc3cnccc3[C@H]3C[C@@H](N)[C@](C)(O)[C@@H](C)O3)ccc2F)c(F)c1 [Example 242, N-(4-((2R,4R,5S,6R)-4-amino-5-hydroxy-5,6-dimethyltetrahydro-2H-pyran-2-yl)pyridin-3-yl)-6-(2,6-difluoro-4-methoxyphenyl)-5-fluoropicolinamide]	> 10000	1200	400	–
Nc1ncc(-c2ccccc2)nc1C(=O)Nc1cnccc1[C@@H]1C[C@H](N)[C@]2(O)CCC[C@@H]2O1 [Example 185, 3-amino-N-(4-((2S,4S,4aR,7aS)-4-amino-4a-hydroxyoctahydrocyclopenta[b]pyran-2-yl)pyridin-3-yl)-6-phenylpyrazine-2-carboxamide]	650	1000	4100	–
C[C@]1(O)[C@H](N)C[C@H](c2ccncc2NC(=O)c2nc(-c3ccccc3)cnc2N)O[C@@H]1C1CC1 [Example 344, 3-amino-N-(4-((2R,4R,5S,6R)-4-amino-6-cyclopropyl-5-hydroxy-5-methyltetrahydro-2H-pyran-2-yl)pyridin-3-yl)-6-phenylpyrazine-2-carboxamide]	110	10	110	–
Nc1ncc(-c2ccccc2)nc1C(=O)Nc1cnccc1[C@H]1C[C@@H](N)[C@H]2CCC[C@H]2O1 [Example 199, 3-amino-N-(4-((2R,4R,4aR,7aR)-4-aminooctahydrocyclopenta[b]pyran-2-yl)pyridin-3-yl)-6-phenylpyrazine-2-carboxamide]	31	1.8	14	–
Nc1ncc(-c2ccccc2)nc1C(=O)Nc1cnccc1[C@@H]1C[C@H](N)[C@]2(O)CCCC[C@@H]2O1 [Example 243, 3-amino-N-(4-((2S,4S,4aR,8aS)-4-amino-4a-hydroxyoctahydro-2H-chromen-2-yl)pyridin-3-yl)-6-phenylpyrazine-2-carboxamide]	7200	4100	8300	–
CC1(C)C[C@H](N)C[C@@H](c2ccncc2NC(=O)c2nc(-c3ccccc3)cnc2N)O1 [Example 297, 3-amino-N-(4-((2S,4R)-4-amino-6,6-dimethyltetrahydro-2H-pyran-2-yl)pyridin-3-yl)-6-phenylpyrazine-2-carboxamide]	10	23	150	–
Nc1ncc(-c2ccccc2)nc1C(=O)Nc1cnccc1[C@@H]1C[C@H](O)[C@]2(O)CCC[C@@H]2O1 [Example 186, 3-amino-N-(4-((2S,4S,4aR,7aS)-4,4a-dihydroxyoctahydrocyclopenta[b]pyran-2-yl)pyridin-3-yl)-6-phenylpyrazine-2-carboxamide]	–	1600	> 10000	760
C[C@@]1(O)[C@H](N)C[C@@H](c2ccncc2NC(=O)c2nc(-c3ccccc3)cnc2N)OC12CC2 [Example 352, 3-amino-N-(4-((5S,7R,8R)-7-amino-8-hydroxy-8-methyl-4-oxaspiro[2.5]octan-5-yl)pyridin-3-yl)-6-phenylpyrazine-2-carboxamide]	55	2.5	41	–
Nc1ncc(-c2ccccc2)nc1C(=O)Nc1cnccc1[C@@H]1C[C@H](O)[C@]2(O)CCCC[C@@H]2O1 [Example 176, 3-amino-N-(4-((2S,4S,4aR,8aS)-4,4a-dihydroxyoctahydro-2H-chromen-2-yl)pyridin-3-yl)-6-phenylpyrazine-2-carboxamide]	–	1100	8000	2600
C[C@H]1O[C@@H](c2ccncc2NC(=O)c2nc(-c3ccccc3)cnc2N)C[C@@H](N)[C@]1(C)O [Example 228, 3-amino-N-(4-((2R,4R,5S,6R)-4-amino-5-hydroxy-5,6-dimethyltetrahydro-2H-pyran-2-yl)pyridin-3-yl)-6-phenylpyrazine-2-carboxamide]	76	2.7	37	–
C[C@@H]1O[C@H](c2ccncc2NC(=O)c2nc(-c3ccccc3)cnc2N)C[C@H](N)[C@@]1(C)O [Example 229, 3-amino-N-(4-((2S,4S,5R,6S)-4-amino-5-hydroxy-5,6-dimethyltetrahydro-2H-pyran-2-yl)pyridin-3-yl)-6-phenylpyrazine-2-carboxamide]	370	93	1000	–
